Patent US12427183B2, “Methods of treating cancer, infectious disease, and autoimmune disease using chemokines” (New York Society for the Relief of the Ruptured and …, priority 2016, dated 2025)

Legend:
pDCs of HDs = experiment: TLR gene expression in purified pDCs from HDs cultured with cytokines or chemokines (qPCR); assay type: cell-based, human; settings: 10 μg/ml each, 24 hours, pDCs from HDs
Method: (§1) PBMCs were prepared using Ficoll-Paque density gradient from fresh blood under internal Institutional Review Board-approved protocols. pDCs were isolated as previously described (Guiducci et al. 2008) using either using negative depletion (Miltenyi Biotech) or following cell sorting using a BD IFNLUX cell sorter. As part of the gating strategy, neutrophils were excluded by FSC/SSC and cells positive for CD14 (CD3 and CD19 as well) were first excluded in order to prevent the contamination by TLR8 positive cells and then positively gated on HLA-DR, CD123 and BDCA4 to purify the pDCs. All BDCA4+ cells also express BDCA2 (results not shown). As a result, pure pDCs were obtained and no markers for neutrophils (CD66) or myeloid cells were found by PCR. B cells were FACS sorted as CD19+ and monocytes as CD14+ cells. PBMCs were depleted of pDCs using BDCA4 beads from Miltenyi. pDCs were cultured at 10,000-30,000 cells per well in a 96-round bottom plate and incubated at 37° C., 5% CO2 and 95% humidity. After 24 hours of culture, the supernatant was collected for ELISA or Mutiplex cytokine assays. In some culture conditions, cells were cultured with the PI3Kδ inhibitor, CAL-101 (Selleck chemicals) for 24 hours. The RNA-based TLR8 agonist, ORN8-L previously described (Guidacci et al. 2013) was synthetized by Chemgenes Corporation. For the TLR8 activation assay, pDCs were incubated in complete media alone, 200 μg/ml ORN8-L in complete media or 200 μg/ml ORN8-L+ 10 μg/ml CXCL4 (R&D systems).
PCR reactions were performed as described previously with 10 ng of cDNA (Barrat et al. 2005). In brief, RNA was extracted from cells using the Qiagen RNeasy Mini Kit. Quantity of RNA was measured by Nanodrop and high-capacity cDNA Reverse Transcription kit was used to generate 20-50 ng cDNA. Gene expression levels were calculated based on relative threshold cycle (Ct) values. This was done using the formula Relative Ct=100×1.8 (HSK-GENE), where HSK is the mean CT of duplicate housekeeping gene runs (we used Ubiquitin), GENE is the mean CT of duplicate runs of the gene of interest, and 100 is arbitrarily chosen as a factor to bring all values above 0.
In particular, CXCL4 or IP-10 (two CXCR3B agonists) (10 μg/ml each) had no impact on TLR8 nor TLR7 and TLR9 expression levels in pDCs (FIG. 2C).

[1] = system: TLR9-mediated activation of pDCs; experiment: TLR9-mediated activation of purified pDCs (CpG with or without chemokines), IFN-α ELISA; assay type: cell-based, human
[2] = system: TLR8-mediated activation of SSc pDCs; experiment: TLR8 activation assay of pDCs from SSc patients (ORN-8L with or without CXCL4); assay type: cell-based, human; settings: ORN-8L 200 μg/ml + CXCL4, 24 hours
Method: as §1
Supernatant from pDCs 24 hour culture was used for quantification of secreted chemokines and cytokines and measured with the use of an enzyme-linked immunosorbent assay (ELISA) or Luminex multiplex-beads immunoassay. CXCL4 ELISA (Ray Biotech) and IFNα, IP-10, IL-6, TNF Luminex assay (Millipore) was performed according to the manufacturer's protocol. Due to the variability in the number of cells obtained from the different patients and so we could compare the values across donors, all results were normalized to 10,000 cells. Of note, for all donors, pDCs were plated between 10,000-30,000 cells.
When purified pDCs from HDs or SSc patients were cultured with CXCL4 alone ([…]), there was no effect on IFN production.

[3] = system: TLR7-mediated activation of human B cells; experiment: TLR7-mediated activation of human B cells (R848 with or without CXCL4); assay type: cell-based; settings: R848 0.15 μM + CXCL4 10 μg/ml
Method: IL-6 and TNF gene levels were measured at 6 hour post culture by PCR, secretion of IL-6 and TNF were quantified using luminex and CD83 and CD80 expression was measured by flow cytometry at 24 hour post culture.

Substance: CXCL4: small chemokine of the CXC family, 70-amino acid protein released from alpha-granules of activated platelets
- TLR8, TLR7 and TLR9 expression levels in pDCs (pDCs of HDs): no impact
- TLR9 response (IFN-α) of pDCs ([1]; CXCL4 10 μg/ml, CpG-C 0.1 μM or CpG-B 0.25 μM, suboptimal doses, similar in HDs and SSc patients): drastically impacted
- TLR9-induced response (IFN-α secretion) by pDCs ([1]; CpG 0.25 μM, chemokine 10 μg/ml (Example 17)): superinduce
- dependence of IFN-α superinduction on chemokine receptors ([1]; with AMG487 100 nM, AMD3100 10 μg/ml, anti-CXCR7 11G8 10 μg/ml, J113863 1.5 μM or Vicriviroc 0.1 μM): independent of their chemokine receptors
- IL-6 production in response to TLR8 [2]: no effect
- TNF production in response to TLR8 [2]: no effect
- production of IFN-α in response to TLR8 ([2]; p<0.001): significantly increased
- production of IP-10 in response to TLR8 ([2]; p<0.001): significantly increased
- gene expression or secretion of IL-6 when activated by TLR7 [3]: little effect
- gene expression or secretion of TNF when activated by TLR7 [3]: little effect
